Reference: patent publication US12351581B2, “Compounds for FGFR inhibition” (Cogent Biosciences, Inc., priority 2023, dated 2025)
Read-outs that look alike come from different tables or passages of the source.

What was measured:
FGFR2 = target: T1, FGFR2 (Homo sapiens, UniProt P21802); test: FGFR wild type enzyme assay (HTRF KinEASE-TK); format: biochemical; conditions: ATP 2 uM
T1 construct: biochemical assays using purified intracellular domains of the respective isoforms; purchased Carna Bioscience 08-134
Procedure: (§1) Activity against FGFR wild type and mutant enzymes were determined in biochemical assays using purified intracellular domains of the respective isoforms using HTRF KinEASE-TK assay technology from CisBio, now PerkinElmer. (Catalogue number 62TK0PEC). Briefly test compounds were tested in 11 point 1:3 serial dilutions, typical final concentration range from 10,000 nM to 0.17 nM. Test compounds were dissolved in DMSO and added to assay plates using acoustic transfer. Enzyme was pre-incubated with test compound for 30 minutes and the assay was initiated by addition of ATP and TK-peptide substrate. After 60 minutes at room temperature the reaction was quenched with detection reagent and incubated for an additional 60 minutes at room temperature. The plates were read using a multimode reader and the emission ratio of 665 nm to 615 nm was determined. This ratio was converted to percent of control (POC). [1-(high control-sample signal)/(high control-low control)]*100. Wells without compound were used to determine high control values and wells without enzyme were used to determine low control values. The POC values were fit using a four-parameter logistic model and the value where the fit curve was equal to 50 POC was reported as the IC50 using the Signals Vitro Vivo software package (PerkinElmer). Final assay conditions were: 50 mM HEPES pH7.5, 10 mM MgCl2, 1 mM EDTA, 0.01% Brij-35, 2 mM MnCl2, 1 mM DTT, and 0.5 uM TK-peptide. The enzyme source, catalogue number, final enzyme concentration, and final ATP concentration can be found in the tables 1-2 below.

FGFR2-WT = FGFR2-WT (Homo sapiens, UniProt P21802); test: Phosphorylated FGFR2-WT (pFGFR2-WT) cell assay, KATOIII cells; format: cell-based; conditions: 1 hour incubation, phospho FGFR2 HTRF
Procedure: KATOIII cells were grown in the appropriate growth medium, IMDM supplemented with 20% fetal bovine serum. Cells were seeded into a 384-well at 1×10^5 cells/25 μL/well. Cells were treated with compound using three-fold serial dilutions at final concentrations ranging from 10 μM to 0.5 nM. Compound was incubated on cells for 1 hour at 37° C., 5% CO2.
Following the 1-hour incubation with compounds, cell lysates were prepared and phospho FGFR2 was measured using the HTRF Phospho-FGFR2 (TYR653/654) Detection Kits (CisBio, cat #64FGFR2Y6PEG). 8 μL of cell lysis buffer (4×) supplied with 1× Phospho and Total protein blocking reagent (CisBio, cat #64FGFR2Y6PEG, CisBio, cat #64KB1AAC) was then added to the wells. Cells were incubated with lysis buffer for 40 minutes at 4° C. under shaking conditions. Plates were centrifuged at 1500 rpm for 3 min and then 16 μL of cell lysate was transferred from the cell-culture plate to a small volume detection plate with the added premixed antibody solutions (4 μL) (CisBio, cat #64FGFR2Y6PEG). Plates were centrifuged at 1000 rpm for 1 min then incubated at 25° C. for 120 min, then overnight at 4° C. Plates were read on the En Vision multimode plate reader via HTRF dual wavelength detection. One hundred percent of control (POC) was determined using DMSO treated samples, and 0 POC was determined using the top concentration of a control compound. A 4-parameter logistic curve was fit to the POC values as a function of compound concentration to determine the IC50 value.

FGFR2 N549H = target: T2, FGFR2 N549H (Homo sapiens, UniProt P21802, N549H); test: FGFR mutant enzyme assay (HTRF KinEASE-TK); format: biochemical; conditions: ATP 0.9 uM
T2 construct: biochemical assays using purified intracellular domains of the respective isoforms; purchased Carna Bioscience 08-532
Procedure: as §1

FGFR2 V564F = target: T3, FGFR2 V564F (Homo sapiens, UniProt P21802, V564F); test: FGFR mutant enzyme assay (HTRF KinEASE-TK); format: biochemical; conditions: ATP 1.5 uM
T3 construct: biochemical assays using purified intracellular domains of the respective isoforms; purchased SignalChem Biotech F05-12FG
Procedure: as §1

FGFR2 V564I = target: T4, FGFR2 V564I (Homo sapiens, UniProt P21802, V564I); test: FGFR mutant enzyme assay (HTRF KinEASE-TK); format: biochemical; conditions: ATP 0.4 uM
T4 construct: biochemical assays using purified intracellular domains of the respective isoforms; purchased Carna Bioscience 08-546
Procedure: as §1

[1] = compound table after the examples, read-out: Enz FGFR2

Chain of FGFR2-WT (P21802 430-767 limits assumed): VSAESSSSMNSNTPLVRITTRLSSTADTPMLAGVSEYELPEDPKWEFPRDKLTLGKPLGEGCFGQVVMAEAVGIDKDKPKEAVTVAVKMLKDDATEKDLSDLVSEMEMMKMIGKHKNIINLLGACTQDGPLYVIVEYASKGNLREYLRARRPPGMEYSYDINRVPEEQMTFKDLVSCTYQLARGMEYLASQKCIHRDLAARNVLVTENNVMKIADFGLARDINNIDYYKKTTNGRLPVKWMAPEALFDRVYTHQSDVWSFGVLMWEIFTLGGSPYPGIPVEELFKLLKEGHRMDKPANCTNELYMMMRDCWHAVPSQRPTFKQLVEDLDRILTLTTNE
T4 sequence (P21802 399-821 V564I limits assumed): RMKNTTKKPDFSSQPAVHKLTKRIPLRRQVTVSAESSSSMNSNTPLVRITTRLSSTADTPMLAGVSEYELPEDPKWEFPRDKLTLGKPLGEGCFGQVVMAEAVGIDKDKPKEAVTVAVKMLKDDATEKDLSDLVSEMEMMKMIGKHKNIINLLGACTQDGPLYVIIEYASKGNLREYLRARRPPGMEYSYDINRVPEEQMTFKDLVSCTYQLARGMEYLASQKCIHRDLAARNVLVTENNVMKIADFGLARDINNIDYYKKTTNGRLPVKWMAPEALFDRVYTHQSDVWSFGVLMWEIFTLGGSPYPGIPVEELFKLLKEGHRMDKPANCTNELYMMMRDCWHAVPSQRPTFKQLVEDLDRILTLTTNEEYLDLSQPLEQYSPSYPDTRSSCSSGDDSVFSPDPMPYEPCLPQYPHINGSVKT
T1 sequence (P21802 399-821 limits assumed): as the sequence (P21802 399-821 V564I limits assumed) above, with I166V counted along it
T3 sequence (P21802 399-821 V564F limits assumed): as the sequence (P21802 399-821 V564I limits assumed) above, with I166F counted along it
T2 sequence (P21802 399-821 N549H limits assumed): as the sequence (P21802 399-821 V564I limits assumed) above, with N151H, I166V counted along it

SMILES	IC50 (FGFR2; Table 3, read-out: FGFR2 Enz)	IC50 (FGFR2; [1])	IC50 (FGFR2-WT)	IC50 (FGFR2 N549H)	IC50 (FGFR2 V564F)	IC50 (FGFR2 V564I)
Cc1c(-c2cc(O[C@H](C)c3ccc(F)cn3)c3c(C#N)cnn3c2)cnn1[C@H]1CCCN(C(=O)[C@H](C)O)C1 [Compound 18, 4-((R)-1-(5-fluoropyridin-2-yl)ethoxy)-6-(1-((S)-1-((S)-2-hydroxypropanoyl)piperidin-3-yl)-5-methyl-1H-pyrazol-4-yl)pyrazolo[1,5-a]pyridine-3-carbonitrile]	0.5 nM	0.6 nM	4 nM	0.5 nM	1 nM	2 nM
C[C@H](O)C(=O)N1CCC(n2cc(-c3cc(O[C@H](C)c4ccc(F)cn4)c4c(C#N)cnn4c3)cn2)CC1 [Compound 19, 4-((R)-1-(5-fluoropyridin-2-yl)ethoxy)-6-(1-(1-((S)-2-hydroxypropanoyl)piperidin-4-yl)-1H-pyrazol-4-yl)pyrazolo[1,5-a]pyridine-3-carbonitrile]	0.15 nM	0.15 nM	1.25 nM	0.1 nM	0.3 nM	0.4 nM
Cc1c(-c2cc(O[C@H](C)c3ccc(F)cn3)c3c(C#N)cnn3c2)cnn1C [Compound 21, 6(R)-6-(1,5-dimethyl-1H-pyrazol-4-yl)-4-(1-(5-fluoropyridin-2-yl)ethoxy)pyrazolo[1,5-a]pyridine-3-carbonitrile]	1.7 nM	1.7 nM	24 nM	3 nM	6 nM	11 nM
Cc1c(-c2cc(O[C@H](C)c3ccc(F)cn3)c3c(C#N)cnn3c2)cnn1[C@H]1CC[C@](C)(O)CC1 [Compound 22, 4-((R)-1-(5-fluoropyridin-2-yl)ethoxy)-6-(1-((1r,4R)-4-hydroxy-4-methylcyclohexyl)-5-methyl-1H-pyrazol-4-yl)pyrazolo[1,5-a]pyridine-3-carbonitrile]	0.3 nM	0.3 nM	2.7 nM	0.4 nM	1 nM	1.4 nM
Cc1c(-c2cc(O[C@H](C)c3ccc(F)cn3)c3c(C#N)cnn3c2)cnn1[C@H]1CC[C@@](C)(O)CC1 [Compound 23, 4-((R)-1-(5-fluoropyridin-2-yl)ethoxy)-6-(1-((1s,4S)-4-hydroxy-4-methylcyclohexyl)-5-methyl-1H-pyrazol-4-yl)pyrazolo[1,5-a]pyridine-3-carbonitrile]	0.4 nM	0.4 nM	4 nM	0.6 nM	1 nM	2 nM
C[C@@H](Oc1cc(-c2ccc(N3CCN(C)[C@@H](CO)C3)nc2)cn2ncc(C#N)c12)c1ccc(F)cn1 [Compound 24, 4-((R)-1-(5-fluoropyridin-2-yl)ethoxy)-6-(6-((R)-3-(hydroxymethyl)-4-methylpiperazin-1-yl)pyridin-3-yl)pyrazolo[1,5-a]pyridine-3-carbonitrile]	0.3 nM	0.3 nM	3 nM	0.3 nM	1 nM	1 nM
C[C@@H](Oc1cc(-c2ccc(N3CC[C@@H](O)[C@@H](O)C3)nc2)cn2ncc(C#N)c12)c1ccc(F)cn1 [Compound 25, 6-(6-((3S,4R)-3,4-dihydroxypiperidin-1-yl)pyridin-3-yl)-4-((R)-1-(5-fluoropyridin-2-yl)ethoxy)pyrazolo[1,5-a]pyridine-3-carbonitrile]	0.3 nM	0.3 nM	3 nM	0.25 nM	0.7 nM	1 nM
C[C@@H](Oc1cc(-c2ccc(N3CC[C@H](O)[C@H](O)C3)nc2)cn2ncc(C#N)c12)c1ccc(F)cn1 [Compound 26, 6-(6-((3R,4S)-3,4-dihydroxypiperidin-1-yl)pyridin-3-yl)-4-((R)-1-(5-fluoropyridin-2-yl)ethoxy)pyrazolo[1,5-a]pyridine-3-carbonitrile]	0.5 nM	0.5 nM	4 nM	0.3 nM	1 nM	1 nM

The next lines start with the values.

IC50 (FGFR2; Table 3, read-out: FGFR2 Enz)	IC50 (FGFR2; [1])	IC50 (FGFR2-WT)	IC50 (FGFR2 N549H)	IC50 (FGFR2 V564F)	IC50 (FGFR2 V564I)	SMILES
3 nM	3 nM	23 nM	5 nM	11 nM	17 nM	Cc1c(-c2cc(O[C@H](C)c3ccc(F)cn3)c3c(C#N)cnn3c2)cnn1C[C@H](O)CO [Compound 27, 6-(1-((S)-2,3-dihydroxypropyl)-5-methyl-1H-pyrazol-4-yl)-4-((R)-1-(5-fluoropyridin-2-yl)ethoxy)pyrazolo[1,5-a]pyridine-3-carbonitrile]
3 nM	3 nM	17 nM	5 nM	10 nM	12 nM	Cc1nn(C[C@H](O)CO)cc1-c1cc(O[C@H](C)c2ccc(F)cn2)c2c(C#N)cnn2c1 [Compound 28, 6-(1-((S)-2,3-dihydroxypropyl)-3-methyl-1H-pyrazol-4-yl)-4-((R)-1-(5-fluoropyridin-2-yl)ethoxy)pyrazolo[1,5-a]pyridine-3-carbonitrile]
0.3 nM	0.3 nM	4 nM	0.6 nM	1.4 nM	1.5 nM	C[C@@H](Oc1cc(-c2cnn([C@H]3CCCNC3)c2N)cn2ncc(C#N)c12)c1ccc(F)cn1 [Compound 29, 6-(5-amino-1-((S)-piperidin-3-yl)-1H-pyrazol-4-yl)-4-((R)-1-(5-fluoropyridin-2-yl)ethoxy)pyrazolo[1,5-a]pyridine-3-carbonitrile]
1 nM	1 nM	9 nM	2 nM	3.7 nM	6 nM	C[C@@H](Oc1cc(-c2cnn(C)c2N)cn2ncc(C#N)c12)c1ccc(F)cn1 [Compound 30, (R)-6-(5-amino-1-methyl-1H-pyrazol-4-yl)-4-(1-(5-fluoropyridin-2-yl)ethoxy)pyrazolo[1,5-a]pyridine-3-carbonitrile]
1 nM	1 nM	7 nM	2 nM	5 nM	5.6 nM	C[C@@H](Oc1cc(-c2cnn(CCO)c2N)cn2ncc(C#N)c12)c1ccc(F)cn1 [Compound 31, (R)-6-(5-amino-1-(2-hydroxyethyl)-1H-pyrazol-4-yl)-4-(1-(5-fluoropyridin-2-yl)ethoxy)pyrazolo[1,5-a]pyridine-3-carbonitrile]
0.4 nM	0.4 nM	2.5 nM	0.3 nM	1 nM	1 nM	C[C@@H](Oc1cc(-c2cnn([C@H]3CC[C@H](O)CC3)c2N)cn2ncc(C#N)c12)c1ccc(F)cn1 [Compound 32, 6-(5-amino-1-((1r,4R)-4-hydroxycyclohexyl)-1H-pyrazol-4-yl)-4-((R)-1-(5-fluoropyridin-2-yl)ethoxy)pyrazolo[1,5-a]pyridine-3-carbonitrile]
1 nM	1 nM	6 nM	0.7 nM	2 nM	3 nM	Cc1c(-c2cc(O[C@H](C)c3ccc(F)cn3)c3c(C#N)cnn3c2)cnn1C1CCS(=O)(=O)CC1 [Compound 33, (R)-6-(1-(1,1-dioxidotetrahydro-2H-thiopyran-4-yl)-5-methyl-1H-pyrazol-4-yl)-4-(1-(5-fluoropyridin-2-yl)ethoxy)pyrazolo[1,5-a]pyridine-3-carbonitrile]
